Experimental data reported in patent US9593127B2, “Heterocyclylalkyne derivatives and their use as modulators of mGluR5 receptors” (RECORDATI IRELAND LTD., priority 2014, dated 2017).

Tests used:
[1] = biological target: T1, human mGlu5 receptor (CHO T-REx h-mGluR5 cells) (Homo sapiens (Human), UniProt P41594); assay: Calcium fluorescence measurement, potentiation of mGlu5 activation at EC20 of glutamate; type: cell-based; settings: for EC50: potentiation, agonist glutamate at EC20, read-out: EC50 nM Glutam.; for Fold Increase Glutam. / Fold Increase 1 microM Glutam.: agonist glutamate
From the text: (§1) Cell lines stably transfected were generated using inducible expression vectors encoding human mGlu5 receptor using the Tetracycline-Regulated Expression system (T-REx™ system, Invitrogen, Life Technologies). Human mGluR5 open reading frame (ORF), comprehensive of the stop codon, were cloned into the pcDNA4/TO/myc-His™ A vector, carrying the TetO2 sequences. The insertion site was HindIII-PstI for mGluR5 receptors. The obtained constructs were then transfected into the T-REx CHO™ cell line using the FuGENE protocol (Roche); the CHO T-REx™ cell line stably expresses the Tet repressor (from the pcDNA6/TR plasmid) under the selection of blasticidin, 10 μg/ml. Stable clones were obtained selecting with zeocine 1 mg/ml and maintaining in ULTRA CHO medium (LONZA) supplemented with dialyzed FBS, zeocin, blasticidine, at 37° C., in an atmosphere of 5% CO2. The expression of h-mGluR5 receptors was de-repressed with 1 μg/ml tetracycline for 18 h before binding experimentation, while the expression of h-mGluR5 receptors was de-repressed respectively with 3 ng/ml and 10 ng/ml tetracycline for 18 h before calcium fluorescence experimentation.
(§2) Cells were seeded into black-walled, clear-bottom, 96-well plates at a density of 80000 cell/well, in RPMI (without Phenol Red, without L-glutamine; Gibco LifeTechnologies, CA) supplemented with 10% dialyzed FBS. Following 18-h incubation with tetracycline, the cells were loaded with […] Ca^2+—sensitive fluorescent dye Fluo-4/AM (Molecular Probes) in Hanks' balanced saline solution (HBSS, Gibco LifeTechnologies, CA) with 20 mM Hepes (Sigma) and 2.5 mM probenecid (Sigma), for 1 h at 37° C. The cells were washed three times with HBSS to remove extracellular dye. Fluorescence signals were measured by using the fluorescence microplate reader Flexstation III (Molecular Devices) at sampling intervals of 1.5 s for 60 s.
(§3) The antagonist potency was determined using the EC80 of the quisqualate used as agonist and the potentiation of mGlu5 activation was determined using the EC20 of the agonist (quisqualate or glutamate). The compounds were applied 10 minutes before the application of the agonist. For binding and calcium assay studies, the compounds were dissolved in DMSO or demineralized water according to their solubility. All the reported doses were those of the corresponding salts or bases.

[2] = biological target: T1, human mGlu5 receptor (CHO T-REx h-mGluR5 cells); assay: Radioligand binding assay at cloned mGluR5 ([3H]MPEP displacement); settings: 4 nM [3H]MPEP, read-out: h.c. mglu R5 IC50
From the text: as §1
Affinity at transmembrane glutamate metabotropic mGluR5 receptor subtypes was evaluated according to the methods of Anderson (Anderson et al., J Pharmacol. Exp. Ther., (2002), Vol. 303(3), pp. 1044-51), with some modifications. Cloned mGluR5 was obtained by re-suspending CHO T-REx h-mGluR5 cells (50 μg/well) in 20 mM HEPES, 2 mM MgCl2, 2 mM CaCl2, pH 7.4, that then were incubated in a final volume of 1 ml for 60 min at 25° C. with 4 nM [^3H]MPEP in the absence or presence of competing drugs. Non-specific binding was determined in the presence of […] MPEP. The incubation was stopped by addition of cold Tris buffer pH 7.4 and rapid filtration through 0.2% polyethyleneimine pretreated Filtermat 1204-401 (Perkin Elmer) filters. The filters were then washed with cold buffer and the radioactivity retained on the filters was counted by liquid scintillation spectrometry (Betaplate 1204 BS-Wallac).
as §3
The inhibition curves of the tested compounds at native and cloned mGluR1 and mGluR5 subtypes were determined by nonlinear regression analysis using software Prism 4.0 (Graphpad, San Diego, Calif.). The IC50 values and pseudo-Hill slope coefficients were estimated by the program. The values for the inhibition constant, Ki, were calculated according to the equation Ki=IC50/(1+[L]/Kd), where [L] is the concentration of radioligand and Kd is the equilibrium dissociation constant of the radioligand-receptor complex (Cheng et al., Biochem. Pharmacol. (1973), Vol. 22, pp. 3099-3108).

[3] = biological target: T1, human mGlu5 receptor (CHO T-REx h-mGluR5 cells); assay: Calcium fluorescence measurement, potentiation of mGlu5 activation at EC20 of quisqualate; type: cell-based; settings: agonist quisqualate
From the text: as §1, §2, §3

T1 sequence (P41594 21-1212): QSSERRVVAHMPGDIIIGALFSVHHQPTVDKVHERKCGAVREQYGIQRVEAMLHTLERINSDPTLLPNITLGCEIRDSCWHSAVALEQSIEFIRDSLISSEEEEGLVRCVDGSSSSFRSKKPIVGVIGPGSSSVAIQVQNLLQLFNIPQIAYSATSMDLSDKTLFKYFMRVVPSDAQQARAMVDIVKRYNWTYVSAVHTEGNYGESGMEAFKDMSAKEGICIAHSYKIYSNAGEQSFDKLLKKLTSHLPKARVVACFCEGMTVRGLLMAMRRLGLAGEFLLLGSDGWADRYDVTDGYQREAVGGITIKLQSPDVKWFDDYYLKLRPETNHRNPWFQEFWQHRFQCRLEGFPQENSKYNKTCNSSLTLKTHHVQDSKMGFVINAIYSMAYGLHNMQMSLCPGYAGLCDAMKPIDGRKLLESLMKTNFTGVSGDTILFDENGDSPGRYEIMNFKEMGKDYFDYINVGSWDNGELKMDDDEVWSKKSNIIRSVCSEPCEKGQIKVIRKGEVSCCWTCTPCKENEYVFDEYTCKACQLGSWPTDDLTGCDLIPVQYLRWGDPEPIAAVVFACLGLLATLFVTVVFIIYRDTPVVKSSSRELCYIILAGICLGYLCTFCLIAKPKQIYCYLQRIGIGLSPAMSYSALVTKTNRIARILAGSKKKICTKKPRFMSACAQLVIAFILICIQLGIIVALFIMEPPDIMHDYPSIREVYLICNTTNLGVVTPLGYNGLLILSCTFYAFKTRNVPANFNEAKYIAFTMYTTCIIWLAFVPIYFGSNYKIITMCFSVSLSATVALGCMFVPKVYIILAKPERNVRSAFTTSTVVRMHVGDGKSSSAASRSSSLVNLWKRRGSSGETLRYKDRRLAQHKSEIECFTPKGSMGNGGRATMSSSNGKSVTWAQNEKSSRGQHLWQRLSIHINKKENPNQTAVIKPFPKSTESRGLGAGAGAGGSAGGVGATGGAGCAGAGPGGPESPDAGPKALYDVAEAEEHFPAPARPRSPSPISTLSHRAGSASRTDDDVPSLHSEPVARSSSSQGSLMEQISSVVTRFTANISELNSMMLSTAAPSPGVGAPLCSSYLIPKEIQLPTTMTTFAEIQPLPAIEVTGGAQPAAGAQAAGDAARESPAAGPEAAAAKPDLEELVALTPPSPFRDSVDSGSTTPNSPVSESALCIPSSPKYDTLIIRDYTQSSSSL

With O=C(OC1CCCC1)N1CCC2C(C#Cc3cccc(Cl)c3)=NOC21 (stereo not drawn) [Example 23, cyclopentyl-3-(3-chlorophenylethynyl)-3a,4,5,6a-tetrahydropyrrolo[3,2-d]isoxazole-6-carboxylate] the EC50 [1] was 144 nM.
For CC(C)CCOC(=O)N1CCC2C(C#Cc3cccc(Cl)c3)=NOC21 (stereo not drawn) [Example 34, 3-methylbutyl-3-(3-chlorophenylethynyl)-3a,4,5,6a-tetrahydropyrrolo[3,2-d]isoxazole-6-carboxylate], the EC50 [1] was 542 nM.
CC(C)OC(=O)N1CCC2C(C#Cc3cccc(Cl)c3)=NOC21 (stereo not drawn) [Example 21, isopropyl-3-(3-chlorophenylethynyl)-3a,4,5,6a-tetrahydropyrrolo[3,2-d]isoxazole-6-carboxylate] was tested, and the “Fold Increase Glutam.” value [1] was 0 fold.
CCN(C(=O)N1CCC2C(C#Cc3cccc(Cl)c3)=NOC21)C(C)C (stereo not drawn) [Example 4, 3-[2-(3-chlorophenyl)ethynyl]-N-ethyl-N-isopropyl-3a,4,5,6a-tetrahydropyrrolo[3,2-d]isoxazole-6-carboxamide] showed an IC50 [2] of 6.99 nM.
Cc1cccc(C#CC2=NOC3C2CCN3C(=O)OC(C)(C)C)n1 (stereo not drawn) [Example 5, tert-butyl 3-[2-(6-methyl-2-pyridyl)ethynyl]-3a,4,5,6a-tetrahydropyrrolo[3,2-d]isoxazole-6-carboxylate] was tested, and the IC50 [2] was 708 nM and the “Fold Inc. Quisq.” value [3] was 0 fold.
With CC(C)(C)NC(=O)N1CCC2C(C#Cc3cccc(Cl)c3)=NOC21 (stereo not drawn) [Example 26, N-t-butyl-3-(3-chlorophenylethynyl)-3a,4,5,6a-tetrahydropyrrolo[3,2-d]isoxazole-6-carboxamide] the “Fold Increase 1 microM Glutam.” value [1] was 2.65 fold, the “Fold Increase Glutam.” value [1] was 5.09 fold and the EC50 [1] was 54.6 nM.
In the case of Cc1ccc(C(=O)N2CCC3C(C#Cc4cccc(Cl)c4)=NOC32)o1 (stereo not drawn) [Example 29, 3-(3-chlorophenylethynyl)-3a,4,5,6a-tetrahydropyrrolo[3,2-d]isoxazol-6-yl-(5-methylfuran-2-yl)methanone], the “Fold Increase Glutam.” value [1] is reported as 0 fold.
For CC(C)(C)COC(=O)N1CCC2C(C#Cc3cccc(Cl)c3)=NOC21 (stereo not drawn) [Example 24, 2,2-dimethylpropyl-3-(3-chlorophenylethynyl)-3a,4,5,6a-tetrahydropvrrolo[3,2-d]isoxazole-6-carboxylate], the “Fold Increase 1 microM Glutam.” value [1] was 8.48 fold, the “Fold Increase Glutam.” value [1] was 5.8 fold and the EC50 [1] was 33.9 nM.
For CCOC(=O)N1CCC2C(C#Cc3cccc(C)n3)=NOC21 (stereo not drawn) [Example 20, ethyl 3-[2-(6-methyl-2-pyridyl)ethynyl]-3a,4,5,6a-tetrahydropyrrolo[3,2-d]isoxazole-6-carboxylate], the IC50 [2] was greater than 1000 nM and the “Fold Inc. Quisq.” value [3] was 0 fold.
Cc1cccc(C#CC2=NOC3C2CCN3C(=O)N2CCOCC2)n1 (stereo not drawn) [Example 18, [3-[2-(6-methyl-2-pyridyl)ethynyl]-3a,4,5,6a-tetrahydropyrrolo[3,2-d]isoxazol-6-yl]-morpholino-methanone] showed an IC50 [2] greater than 1000 nM.
For CC(C)NC(=O)N1CCC2C(C#Cc3cccc(Cl)c3)=NOC21 (stereo not drawn) [Example 25, 3-(3-chlorophenylethynyl)-N-(propan-2-yl)-3a,4,5,6a-tetrahydropyrrolo[3,2-d]isoxazole-6-carboxamide], the “Fold Increase Glutam.” value [1] was 0 fold.
In the case of O=C(OCC1CC1)N1CCC2C(C#Cc3cccc(Cl)c3)=NOC21 (stereo not drawn) [Example 22, cyclopropylmethyl-3-(3-chlorophenylethynyl)-3a,4,5,6a-tetrahydropyrrolo[3,2-d]isoxazole-6-carboxylate], the “Fold Increase 1 microM Glutam.” value [1] is reported as 3.11 fold, the “Fold Increase Glutam.” value [1] is reported as 4.7 fold and the EC50 [1] is reported as 777 nM.
In the case of O=C(Nc1cccnc1)N1CCC2C(C#Cc3cccc(Cl)c3)=NOC21 (stereo not drawn) [Example 36, 3-(3-chlorophenylethynyl)-N-(pyridin-3-yl)-3a,4,5,6a-tetrahydropyrrolo[3,2-d]isoxazole-6-carboxamide], the “Fold Increase Glutam.” value [1] is reported as 0 fold.
CON(C)C(=O)N1CCC2C(C#Cc3cccc(C)n3)=NOC21 (stereo not drawn) [Example 19, N-methoxy-N-methyl-3-[2-(6-methyl-2-pyridyl)ethynyl]-3a,4,5,6a-tetrahydropyrrolo[3,2-d]isoxazole-6-carboxamide] was tested, and the IC50 [2] was 239 nM.
In the case of Cc1cccc(C#CC2=NOC3C2CCN3C(=O)N2CCCCC2)n1 (stereo not drawn) [Example 17, [3-[2-(6-methyl-2-pyridyl)ethynyl]-3a,4,5,6a-tetrahydropyrrolo[3,2-d]isoxazol-6-yl]-(1-piperidyl)methanone], the IC50 [2] is reported as greater than 1000 nM and the “Fold Inc. Quisq.” value [3] is reported as 1.27 fold.
For CCOC(=O)N1CCC2C(C#Cc3cccc(C)c3)=NOC21 (stereo not drawn) [Example 16, ethyl 3-[2-(m-tolyl)ethynyl]-3a,4,5,6a-tetrahydropyrrolo[3,2-d]isoxazole-6-carboxylate], the IC50 [2] was 152 nM.
Compound Cc1cccc(C#CC2=NOC3C2CCN3C(=O)N2CCCCC2)c1 (stereo not drawn) [Example 12, [3-[2-(m-tolyl)ethynyl]-3a,4,5,6a-tetrahydropyrrolo[3,2-d]isoxazol-6-yl]-(1-piperidyl)methanone] has an IC50 [2] of 10.6 nM.
In the case of O=C(c1ccoc1)N1CCC2C(C#Cc3cccc(Cl)c3)=NOC21 (stereo not drawn) [Example 28], the “Fold Increase Glutam.” value [1] is reported as 0 fold.
O=C(C1CCCC1)N1CCC2C(C#Cc3cccc(Cl)c3)=NOC21 (stereo not drawn) [Example 30, 3-(3-chlorophenylethynyl)-3a,4,5,6a-tetrahydropyrrolo[3,2-d]isoxazol-6-yl-(cyclopentyl)methanone] was tested, and the “Fold Increase 1 microM Glutam.” value [1] was 3.95 fold, the “Fold Increase Glutam.” value [1] was 3.69 fold and the EC50 [1] was 108 nM.
In the case of O=C(C1CCOCC1)N1CCC2C(C#Cc3cccc(Cl)c3)=NOC21 (stereo not drawn) [Example 31, 3-(3-chlorophenylethynyl)-3a,4,5,6a-tetrahydropyrro[3,5,6a-tetrahdrorrolo3,2-d]oxazol-6-yl-(oxan-4-yl)methanone], the “Fold Increase 1 microM Glutam.” value [1] is reported as 2.14 fold, the “Fold Increase Glutam.” value [1] is reported as 5.29 fold and the EC50 [1] is reported as 301 nM.
In the case of O=C(NC1CCCC1)N1CCC2C(C#Cc3cccc(Cl)c3)=NOC21 (stereo not drawn) [Example 27, 3-(3-chlorophenylethynyl)-N-cyclopentyl-3a,4,5,6a-tetrahydropyrrolo[3,2-d]isoxazole-6-carboxamide], the “Fold Increase 1 microM Glutam.” value [1] is reported as 4.08 fold, the “Fold Increase Glutam.” value [1] is reported as 5.11 fold and the EC50 [1] is reported as 96.9 nM.
For CN1CCN(C(=O)N2CCC3C(C#Cc4cccc(Cl)c4)=NOC32)CC1 (stereo not drawn) [Example 32, 3-(3-chlorophenylethynyl)-3a,4,5,6a-tetrahydropyrrolo[3,2-d]isoxazol-6-yl-(4-methylpiperazin-1-yl)methanone], the “Fold Increase 1 microM Glutam.” value [1] was 1.92 fold, the “Fold Increase Glutam.” value [1] was 2.92 fold and the EC50 [1] was 1100 nM.
